Experimental data reported in patent US20220073592A1, “SYNTHETIC AND RECOMBINANT COLLAGEN PEPTIDES HAVING BIOLOGICAL ACTIVITY” (GELITA AG, priority 2018, published 2022).
Where no end group is shown, it is not given here. [ ]: non-standard residue; d: D form. Hyp = O=C(O)[C@@H]1C[C@@H](O)CN1

What was measured:
Assay type in all cases: cell-based
human dermal fibroblasts [1] = assay: Blyscan glycosaminoglycan assay, proteoglycan synthesis by dermal fibroblasts; settings: 0.5 mg/ml, two weeks stimulation; for increase in the synthesis of proteoglycans by dermal fibroblasts compared to untreated controls: hydroxylated peptides; for increase in collagen synthesis (in the proteoglycan assay, dermal fibroblasts): non-hydroxylated peptides
Experimental: The human cells used were obtained from tebu-bio GmbH, Offenbach, Germany. The chondrocytes (Cat. No. 402-05a) or dermal fibroblasts (Cat. No. 106-05a) were first sown in 12-well culture plates and cultured at 37° C., 5% CO2 in Ham's F12 medium, to which 10% fetal calf serum, 20 U/ml penicillin-streptomycin and 50 μg/ml ascorbic acid were added. On every other day, the culture medium was replaced by new culture medium until the cells had reached 80% confluence. […] The Blyscan glycosaminoglycan assay (Article No. 054B3000, 2019, tebu-bio, Offenbach, Germany, or Biocolor Ltd., UK) was used to determine proteoglycans. The biosynthesis of proteoglycans was determined after stimulating dermal fibroblasts for two weeks. According to the manufacturer's instructions, after discarding the culture medium, the cell layers were covered with 1 ml of papain extraction solution and incubated for three hours at 65° C. with vigorous shaking. The cell suspensions were then centrifuged (10,000 g, 10 min) and the supernatants were collected. After adding 1 ml of Blyscan dye solution and shaking (30 min), the supernatants were centrifuged again (12,000 rpm, 10 min) and then discarded. The isolated proteoglycan pellets were resuspended in 500 μl of dissociation solution. A photometric determination of the synthesized proteoglycan in 200 μl sample solution was carried out at a wavelength of 656 nm in comparison to untreated control experiments.

human chondrocytes [2] = assay: Sircol collagen assay, collagen synthesis by chondrocytes; settings: 0.5 mg/ml peptide, three weeks stimulation
Experimental: (§1) The human cells used were obtained from tebu-bio GmbH, Offenbach, Germany. The chondrocytes (Cat. No. 402-05a) or dermal fibroblasts (Cat. No. 106-05a) were first sown in 12-well culture plates and cultured at 37° C., 5% CO2 in Ham's F12 medium, to which 10% fetal calf serum, 20 U/ml penicillin-streptomycin and 50 μg/ml ascorbic acid were added. On every other day, the culture medium was replaced by new culture medium until the cells had reached 80% confluence. […] To investigate the collagen metabolism, the amount of newly synthesized collagen was determined after stimulating the cells with 0.5 mg/ml BCP for three weeks. The synthesized collagen was isolated using the Sircol assay (Article No. 054S5000, 2019, tebu-bio, Offenbach, Germany, or Biocolor Ltd., UK) according to the manufacturer's instructions. In brief, the culture medium was initially discarded and the adherent cell layers were digested with 0.1 mg pepsin solution in 0.5 M acetic acid at 4° C. overnight. The cell suspensions were neutralized by adding 100 μl of an acid-neutralizing reagent. The synthesized collagen was then separated off by adding 200 μl of an isolation and concentration solution with vigorous shaking at 4° C. overnight. After centrifugation (12,000 rpm, 10 min) and discarding the supernatant, the isolated collagen was resuspended in 1 ml of Sircol dye solution. After 30 minutes of shaking and another centrifugation, the collagen pellet was covered with 750 μl of cold acidic solid washing reagent. After another centrifugation, the supernatant was again discarded and the enriched collagen was taken up in 250 μl of alkaline solution. In each case 200 μl of the sample solutions were used for photometric quantification of the synthesized collagen. The absorbance was measured at a wavelength of 492 nm. The amount of collagen synthesized in each case was determined on the basis of standardized collagen solutions.

human dermal fibroblasts [3] = assay: Sircol collagen assay, collagen synthesis by dermal fibroblasts; settings: 0.5 mg/ml peptide, three weeks stimulation
Experimental: as §1

human chondrocytes [4] = assay: Blyscan glycosaminoglycan assay, proteoglycan synthesis by chondrocytes; settings: 0.5 mg/ml; for increase in collagen synthesis (in the proteoglycan assay, chondrocytes): hydroxylated peptides; for increase in the synthesis of proteoglycans by chondrocytes compared to untreated controls: non-hydroxylated peptides

Row | Substance | increase in the synthesis of proteoglycans by dermal fibroblasts compared to untreated controls (human dermal fibroblasts [1]) [%] | increase in collagen synthesis by chondrocytes compared to untreated controls (human chondrocytes [2]) [%] | increase in collagen synthesis by dermal fibroblasts compared to untreated controls (human dermal fibroblasts [3]) [%] | increase in collagen synthesis (in the proteoglycan assay, chondrocytes) (human chondrocytes [4]) [%] | increase in collagen synthesis (in the proteoglycan assay, dermal fibroblasts) (human dermal fibroblasts [1]) [%] | increase in the synthesis of proteoglycans by chondrocytes compared to untreated controls (human chondrocytes [4]) [%]
1 | Gly-Pro-4Hyp-Gly-Pro-Ala-Gly-Glu-Lys-Gly-Ala-4Hyp-Gly-Ala-Asp-Gly-Pro-Ala-Gly-Ala-4Hyp-Gly-Thr-Pro-Gly-Pro-Gln-Gly-Ile-Ala-Gly-Gln-Arg-Gly-Val (GP[Hyp]GPAGEKGA[Hyp]GADGPAGA[Hyp]GTPGPQGIAGQRGV) [SEQ ID No. 22, collagen peptide comprising 35 amino acids] | 28 | 46 | 43 | 26 | – | –
2 | Gly-Ala-4Hyp-Gly-Lys-Asp-Gly-Val-Arg-Gly-Leu-Thr-Gly-Pro-Ile-Gly-Pro-4Hyp-Gly-Pro-Ala-Gly-Ala-4Hyp (GA[Hyp]GKDGVRGLTGPIGP[Hyp]GPAGA[Hyp]) [SEQ ID No. 8, collagen peptide comprising 24 amino acids] | 23 | 24 | 37 | 20 | – | –
3 | KGAPGADGPAGAPGTPGPQ [SEQ ID No. 15, collagen peptide comprising 19 amino acids] | – | 31 | 23 | – | 18 | 6
4 | His-His-His-His-His-His-Gly-Ala-4Hyp-Gly-Lys-Asp-Gly-Val-Arg-Gly-Leu-Thr-Gly-Pro-Ile-Gly-Pro-4Hyp-Gly-Pro-Ala-Gly-Ala-4Hyp-Gly-Asp-Lys-Gly-Glu-Ala-Gly-Pro-Ser (HHHHHHGA[Hyp]GKDGVRGLTGPIGP[Hyp]GPAGA[Hyp]GDKGEAGPS) [SEQ ID No. 26, collagen peptide comprising 39 amino acids] | 6 | 12 | 12 | – | – | –
5 | Gly-Val-4Hyp-Gly-Lys-Tyr-Gly-Val-Arg-Gly-Leu-Thr-Gly-Pro-Ile-Gly-Pro-4Hyp-Gly-Pro-Leu-Gly-Ile-4Hyp-Gly-Trp-Lys-Gly-Phe-Val-Gly-Pro-Thr (GV[Hyp]GKYGVRGLTGPIGP[Hyp]GPLGI[Hyp]GWKGFVGPT) [SEQ ID No. 23, collagen peptide comprising 33 amino acids] | 22 | 19 | 39 | 11 | – | –
6 | Gly-Ala-4Hyp-Gly-Lys-Asp-Gly-Val-Arg-Gly-Leu-Thr-Gly-4Hyp-Ile-Gly-4Hyp-4Hyp-Gly-4Hyp-Ala-Gly-Ala-4Hyp-Gly-Asp-Lys-Gly-Glu-Ala-Gly-4Hyp-Ser (GA[Hyp]GKDGVRGLTG[Hyp]IG[Hyp][Hyp]G[Hyp]AGA[Hyp]GDKGEAG[Hyp]S) [SEQ ID No. 25, collagen peptide comprising 33 amino acids] | 23 | 19 | 27 | – | – | –
7 | Gly-Leu-4Hyp-Gly-Lys-Met-Gly-Val-Phe-Gly-Leu-Thr-Gly-Pro-Ile-Gly-Pro-4Hyp-Gly-Pro-Trp-Gly-Val-4Hyp-Gly-His-Lys-Gly-Tyr-Leu-Gly-Pro-Thr (GL[Hyp]GKMGVFGLTGPIGP[Hyp]GPWGV[Hyp]GHKGYLGPT) [SEQ ID No. 27, collagen peptide comprising 33 amino acids] | 26 | – | 27 | – | – | –
8 | Gly-Pro-4Hyp-Gly-Pro-Val-Gly-Thr-Lys-Gly-Leu-4Hyp-Gly-Phe-Tyr-Gly-Pro-Leu-Gly-Ile-4Hyp-Gly-His-Pro-Gly-Pro-Trp-Gly-Met-Leu-Gly-Thr-Lys-Gly-Val [SEQ ID No. 30] | 22 | – | 21 | – | – | –
9 | GAPGKDGVRGLTGPIGPPGPAGAPGDKGEAGPS [SEQ ID No. 2, collagen peptide comprising 33 amino acids] | – | 16 | 22 | – | 18 | 22
10 | Gly-Ala-4Hyp-Gly-Lys-Asp-Gly-Val-Arg-Gly-Leu-Thr-Gly-Pro-Ile-Gly-Pro-4Hyp-Gly-Pro-Ala-Gly-Ala (GA[Hyp]GKDGVRGLTGPIGP[Hyp]GPAGA) [SEQ ID No. 18, collagen peptide comprising 23 amino acids] | 31 | 32 | 40 | 25 | – | –
11 | Gly-Ala-4Hyp-Gly-Lys-Asp-Gly-Val-Arg-Gly-Leu-Thr-Gly-Pro-Ile-Gly-Pro-4Hyp-Gly-Pro-Ala-Gly-Ala-4Hyp-Gly-Asp-Lys-Gly-Glu-Ala-Gly-Pro-Ser-Gly-Pro-Ala-Gly-Pro-Thr-Gly-Ala-Arg-Gly-Ala-4Hyp-Gly-Asp-Arg-Gly-Glu-4Hyp-Gly-Pro-4Hyp-Gly-Pro-Ala-Gly [SEQ ID No. 19] | 29 | 37 | 40 | 18 | – | –
12 | Gly-Pro-4Hyp-Gly-Pro-Leu-Gly-Met-Lys-Gly-Leu-4Hyp-Gly-Val-Trp-Gly-Pro-Phe-Gly-Leu-4Hyp-Gly-Thr-Pro-Gly-Pro-His-Gly-Ile-Thr-Gly-Tyr-Lys-Gly-Val [SEQ ID No. 29] | 21 | – | 21 | – | – | –
13 | Gly-Ala-4Hyp-Gly-Lys-Asp-Gly-Val-Arg-Gly-Leu-Thr-Gly-Pro-Ile-Gly-Pro-4Hyp-Gly-Pro-Ala-Gly-Ala-4Hyp-Gly-Asp-Lys-Gly-Glu-Ala-Gly-Pro-Ser-Gly-Pro-Ala-Gly-Pro-Thr-Gly-Ala-Arg-Gly-Ala-4Hyp-Gly-Asp-Arg-Gly-Glu-4Hyp-Gly-Pro-4Hyp-Gly-Pro-Ala-Gly-Phe-Ala-Gly-Pro-4Hyp-Gly-Ala-Asp-Gly-Gln-4Hyp-Gly-Ala-Lys-Gly-Glu-Pro-Gly-Asp-Ala-Gly-Ala-Lys-Gly-Asp-Ala-Gly-Pro-Pro-Gly-Pro-Ala [SEQ ID No. 20] | 29 | – | 37 | 15 | – | –
14 | Gly-Leu-4Hyp-Gly-Lys-Tyr-Gly-Val-His-Gly-Leu-Thr-Gly-Pro-Leu-Gly-Pro-4Hyp-Gly-Pro-Met-Gly-Ile-4Hyp-Gly-Trp-Lys-Gly-Phe-Val-Gly-Pro-Thr (GL[Hyp]GKYGVHGLTGPLGP[Hyp]GPMGI[Hyp]GWKGFVGPT) [SEQ ID No. 28, collagen peptide comprising 33 amino acids] | 22 | – | 22 | – | – | –
